# According to patent US20060008891A1, “Cathepsin G-related peptides as modulators of formylpeptide receptors (FPR)” (The Government of USA as repersented by the Secretary, …, priority 2004, published 2006):
# Entries after “also recorded” stand apart in the source; their conditions may differ.
# What was measured:
# [1] = biological target: T1, FPR (Homo sapiens, UniProt P21462); assay: Calcium flux (Fura-2), ETFR cells; assay type: cell-based; details: CaG 10 μg/ml
# T1 construct: expressed in transfected cells; host or cells: Rat basophilic leukemia (RBL) cells, stably transfected (ETFR cells); gift of H. Ali and R. Snyderman, Duke University
# T1 sequence (P21462 1-350): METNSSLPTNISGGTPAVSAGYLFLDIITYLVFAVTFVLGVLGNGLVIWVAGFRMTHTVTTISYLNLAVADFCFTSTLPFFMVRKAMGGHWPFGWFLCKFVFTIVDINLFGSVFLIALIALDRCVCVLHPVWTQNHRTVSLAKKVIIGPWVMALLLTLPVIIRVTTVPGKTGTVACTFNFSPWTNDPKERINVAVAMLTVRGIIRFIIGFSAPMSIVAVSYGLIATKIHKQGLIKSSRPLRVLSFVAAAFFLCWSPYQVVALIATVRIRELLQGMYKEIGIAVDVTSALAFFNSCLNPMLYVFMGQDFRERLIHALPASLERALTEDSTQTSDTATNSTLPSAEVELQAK
# Description: Monocytes or ETFR cells (10^7 cells/ml in RPMI 1640 containing 10% FBS) were loaded with 5 μM Fura-2 at room temperature (30 min for monocytes, 60 min for ETFR cells) in the dark. The cells were washed and resuspended (0.5×10^6 cells/ml) in saline buffer (138 mM NaCl, 6 mM KCl, 1 mM CaCl2, 10 mM HEPES, 5 mM glucose, and 1% BSA, pH 7.4). Two milliliters of the cell suspension were transferred to a quartz cuvette, which was placed in a luminescence spectrometer LS55 (Perkin-Elmer, Beaconsfield, UK). Calcium mobilization was measured by recording the ratio of the fluorescence excited at 340 and 380 nm in response to stimulants.
# [2] = system: p38 MAPK; assay: Phosphorylation of p38 MAPK in ETFR cells (Western blot); assay type: cell-based, rat
# Description: (§1) ETFR cells were plated in Petri dishes and cultured in DMEM at 37° C. in humidified 5% CO2 atmosphere for 48 h. After further culture in serum-free DMEM overnight, the cells were treated with stimulants for indicated time periods. The reaction was stopped by adding 1 ml ice-cold PBS, and the cells were lysed in 1×SDS lysis buffer (62.5 mM Tris-HCl, 2% w/v SDS, 10% glycerol, 50 mM DTT, pH 6.8) and harvested into tubes for sonication. Proteins (50 μg for each sample) were resolved by SDS-PAGE and transferred onto nitrocellulose membranes (Bio-Rad, Hercules, Calif.). The membranes were blocked for 2 h at room temperature in 3% non-fat milk prepared in Tris-buffered saline-T (10 mM Tris-HCl, pH 7.5, 150 mM NaCl, 0.1% Tween 20) and probed with anti-p-ERK1/2, p-p38 MAPK, or p-Akt (1:1000) at room temperature for 1-2 h or at 4° C. overnight. The membranes were then washed and incubated with horseradish peroxidase-conjugated secondary antibodies diluted in Tris-buffered saline-T for 1 h at room temperature. The immune complexes on the membranes were visualized using ECL reagents. Total ERK1/2, p38 MAPK, and Akt were visualized by stripping the same membrane and probing with antibodies against total ERK1/2, p38 MAPK, and Akt.
# [3] = system: ERK1/2; assay: Phosphorylation of ERK1/2 in ETFR cells (Western blot); assay type: cell-based, rat
# Description: as §1
# [4] = system: PKC isozymes; assay: PKC translocation in parental RBL cells; assay type: cell-based, rat; details: 100 nM fMLF, 10 μg/ml CaG or PMA 500 nM, 37° C. 10 min
# [5] = biological target: T1, FPR; assay: FPR cell surface expression (FACS), ETFR cells and monocytes; assay type: cell-based; details: 5 μg/ml CaG or 1 μM fMLF, 37° C. 30 min
# Description: Cell surface expression of FPR was monitored by a flow cytometer (FACS). Monocytes and ETFR cells (1×10^6 cells/sample) were pretreated with medium or stimulants at 37° C. for 30 minutes. After two washes with cold FACS buffer (DPBS, 1% FCS, 0.02% sodium azide, and 5 mM EDTA, pH7.4), the cells were blocked with 5% normal rat serum followed by incubation with a monoclonal anti-human FPR antibody or isotype matched IgG on ice for 30 min. After three washes with FACS buffer, FITC-labeled rat anti-mouse antibody (PharMingen) was applied and incubated on ice for 30 min. The cells were then washed twice with FACS buffer and analyzed immediately by flow cytometry (Becton Dickinson, San Jose, Calif.).
# [6] = biological target: T1, FPR; assay: FPR internalization (confocal microscopy), ETFR cells; assay type: cell-based; details: 30 min 37° C.
# Description: For detection of FPR internalization, ETFR cells were seeded on coverslips and cultured overnight in DMEM containing 10% FCS at 37° C. After pretreatment with medium or stimulants for 30 minutes at 37° C., the cells were fixed in 0.25% paraformaldehyde for 15 min at 4° C. The cells were then permeabilized with 0.2% Tween 20 for 30 min at 4° C., followed by incubation with a monoclonal anti-human FPR antibody or isotype matched IgG for 30 min at 4° C. After three washes with 0.1% Tween 20 in DPBS, a FITC-labeled rat anti-mouse antibody (PharMingen) was applied to the cells for 30 min at 4° C. The coverslips were covered with DAPI, then mounted with an anti-fade, water-based mounting medium and analyzed under a laser scanning Zeiss LSM410 fluorescence confocal microscope.
# [7] = system: ERK1/2; assay: Phosphorylation of ERK1/2 in parental RBL cells; assay type: cell-based, rat
substance,measurement,setting,value
"CaG: Cathepsin G, serine protease purified from neutrophil granules, purchased from Athens Research & Technology",Ca2+ flux,[1],weak inducer of Ca^2+ flux; also recorded: induced a measurable level of Ca flux
same,attenuation of Ca2+ response to fMLF,[1]; 0.1 nM fMLF,attenuated cell response induced by low concentrations of fMLF; also recorded: significantly attenuated cell response to 0.1 nM fMLF
same,time to activation of p38 MAPK,[2],1 to 5 min
same,time to activation of ERK1/2,[3]; ETFR cells,1 to 5 min
same,delay to reach maximal activity (MAPK phosphorylation) as compared with fMLF,[3]; FPR transfected cells,10 to 15 min
same,PKC translocation in parental RBL cells,[4],Neither CaG nor fMLF stimulated PKC translocation in parental RBL cells
same,down-regulation of FPR from the cell surface,[5],"weaker, but significant ability of CaG to down-regulate FPR"
same,FPR internalization,[6],significantly and dose-dependently induced FPR internalization
same,phosphorylation of ERK1/2 in parental RBL cells,[7],did not show any increased phosphorylation of ERK1/2
